Experiments:
[1] = test system: autophagy flux (GFP-LC3 dots per proximal tubule); assay: Autophagy flux in kidneys of GFP-LC3 transgenic mice after cisplatin, with or without chloroquine; type: in vivo
Experimental: The test animals were 8-week-old male autophagy-monitoring mice (GFP-LC3 transgenic mice). The mice had free access to water and standard mouse chow.
The test compound (compound 011) was suspended in PBS to prepare a sample liquid.
Six hours before anesthetization of the mice, a chloroquine solution was administered intraperitoneally as a lysosomal inhibitor at 50 μg/g body weight. Separately, a group in which the chloroquine solution was not administered was also prepared. The chloroquine solution was prepared by dissolving chloroquine (Sigma-Aldrich) in distilled water at a concentration of 5 mg/mL.
The autophagy flux was evaluated by quantifying GFP-LC3 dots (GFP-positive dots).
The kidney sections were immunostained with LRP2/Megalin (red), which is a marker for proximal tubular cells, and contrast-stained with DAPI (blue).
The number of GFP-LC3 dots (green) per proximal tubule in each group (n=5) was quantified in 10 high-magnification fields (600×), and the average values were used for evaluation.

[2] = test system: Kidney Injury Induced by Cisplatin Administration; assay: Cisplatin-induced kidney injury in mice, PAS histology of renal cortex; type: in vivo
Experimental: Wild-type male mice were used as test animals. The mice had free access to water and standard mouse chow. […] The same amount of physiological saline was intraperitoneally administered to the control group. A sample liquid was prepared by suspending Compound 011 (test compound) in PBS. […] The same amount of PBS was orally administered to the control group. […] Additionally, the mice that were not administered with cisplatin were treated in a similar manner, and the blood and kidneys were collected. The mice were thus divided into four groups. The mice were perfused transcardially with PBS (pH of 7.4). The collected kidneys were sliced, post-fixed in 4% PFA (paraformaldehyde), and embedded in paraffin or frozen in OCT compound to obtain section samples of renal cortex. The section samples of the four groups were stained with PAS (Periodic acid-Schiff) and observed under an optical microscope (400×) (FIG. 1). The renal tubular injury was quantitatively evaluated using PAS-stained section samples. […] The renal tubular injury was defined to be cellular necrosis, tubular dilatation, and cast formation.

[3] = test system: Kidney Injury Induced by Cisplatin Administration; assay: Plasma creatinine and urea nitrogen in cisplatin-treated mice; type: in vivo
Experimental: Wild-type male mice were used as test animals. […] The same amount of physiological saline was intraperitoneally administered to the control group. […] The same amount of PBS was orally administered to the control group. […] Plasma was obtained from the blood collected from the mice to measure the creatinine concentration and the urea nitrogen concentration (n=2 to 4 for each group). The creatinine concentration was measured by using a BioAssay Systems' Creatinine Assay Kit (DICT-500), and the urea nitrogen concentration was measured by using a Wako BUN-test. […] Additionally, in FIG. 3, “Cre” represents the creatinine concentration and “BUN” represents the serum urea nitrogen concentration.

[4] = test system: p53-positive cells / p62-positive dots (DNA damage, autophagy substrate); assay: p53 and p62 immunostaining of renal cortex after cisplatin administration; type: in vivo, mice; settings: cisplatin 15 mg/kg i.p. plus test compound 10 mg/kg orally
Experimental: The kidneys of mice were collected as in Test Example 1. The kidneys were subjected to autoclaving at 120° C. for 10 minutes in a […] citrate buffer (pH of 6.0) for […] and to blocking with 1.5% bovine serum albumin in PBS for 60 minutes. Subsequently, paraffin embedding was performed to prepare section samples of renal cortex of the four groups.
The sections were incubated overnight at 4° C. with p53 or p62 primary antibodies.
For each group (n=2 to 4), the number of p53-positive cells or p62-positive dots were counted in fields at a magnification of 200× (p53) or 400× (p62) to calculate the average values.

A549 cells = assay: LC3-II Western blotting in A549 cells with or without Bafilomycin A1; type: cell-based, human; settings: 10 μM test compound, 6 hours, Bafilomycin A1 250 nM
Experimental: A549 cells (1.0×10^5 cells/well), i.e., human lung tumor cells, were seeded in a 6-well plate containing DMEM medium and cultured for 1 day, and the cells were washed with PBS.
A DMEM medium containing Bafilomycin Al (final concentration: 250 nM; also referred to as “Baf”) (Baf(+)) and a DMEM medium not containing Baf (Baf(−)) were prepared. Additionally, a Baf-containing DMEM medium with DMSO or Compound 011 (the test compound) and a Baf-free DMEM medium with DMSO or Compound 011 (the test compound) were also prepared, thus preparing a total of six different media. The final concentration of DMSO was 0.1% and the final concentration of the test compound was 10 μM. Separately, an Earle's balanced salt solution (EBSS; starvation) containing Baf and an EBSS not containing Baf were also prepared. 3 mL of one of the six types of media and two types of EBSSs was added to each well containing washed cells, followed by culturing for 6 hours. After washing the cells three times with PBS, RIPA buffer was added at 4° C., and the cells were allowed to stand on ice for 30 minute. The cells were then quickly and carefully collected from the wells. After the cells were collected, centrifugation (15000 rpm, 4° C., 30 min) was performed, and the supernatant was collected to obtain a protein solution. […]

[5] = cisplatin 15 mg/kg i.p. plus test compound 10 mg/kg orally, effect on cisplatin-induced increase
[6] = test compound 10 mg/kg orally, no cisplatin

Structure (SMILES)	number of GFP-LC3 dots per proximal tubule ([1]; cisplatin 15 mg/kg i.p. alone, without chloroquine)	number of GFP-LC3 dots per proximal tubule ([1]; cisplatin 15 mg/kg i.p. plus chloroquine on the second day, no test compound)	renal tubular injury (PAS-stained renal cortex sections) ([2]; cisplatin 15 mg/kg i.p. plus test compound 10 mg/kg orally for 3 consecutive days, 3 days after cisplatin)	score of renal tubular injury (PAS injury score) ([2]; cisplatin 15 mg/kg i.p. plus test compound 10 mg/kg orally, 10-scale grade)	change in PAS-stained renal cortex versus vehicle administration group ([2]; test compound 10 mg/kg orally for 3 days, no cisplatin)	plasma creatinine concentration [3, 5]	serum urea nitrogen (BUN) concentration [3, 5]	plasma creatinine concentration [3, 6]	serum urea nitrogen (BUN) concentration [3, 6]	number of p53-positive cells [4]	number of p62-positive dots [4]	number of GFP-LC3 dots per proximal tubule ([1]; cisplatin 15 mg/kg i.p. plus test compound 10 mg/kg orally, 2 days after cisplatin, without chloroquine)	number of GFP-LC3 dots per proximal tubule ([1]; cisplatin plus test compound 10 mg/kg orally plus chloroquine 50 μg/g i.p. 6 hours before anesthetization)	LC3-II protein level with Baf treatment relative to without Baf treatment (A549 cells)	degree of the LC3-II increase with Baf treatment compared with starvation (EBSS) (A549 cells)
N.N.[Cl][Pt][Cl] [cisplatin, reference compound]	increased GFP-LC3 dots	no increase in GFP-LC3 dots													
O=C(O)c1cnc(N2CCN(c3noc4cccc(C(F)(F)F)c34)CC2)c(Cl)c1 [Compound 011, 5-Chloro-6-(4-(4-(trifluoromethyl)benzo[d]isoxazol-3-yl)piperazin-1-yl)nicotinic acid]			clearly attenuated renal tubular injury caused by cisplatin	clearly attenuated	no apparent change	clearly suppressed	clearly suppressed	little or no change	little or no change	clearly reduced	clearly reduced	a decrease in GFP-LC3 dots	significantly increased	significant increase in LC3-II with the Baf treatment	comparable to that of starvation

From patent US20240307375A1, “PHARMACEUTICAL COMPOSITION FOR PREVENTING AND/OR TREATING KIDNEY INJURY, AND AUTOPHAGY ACTIVATOR” (OSAKA UNIVERSITY, priority 2021, published 2024)
